Earlier results as cited in US8828934B2, “Mnk kinase homologous proteins involved in the regulation of energy homeostasis and organelle metabolism” (Boehringer Ingelheim International GmbH, priority 2001, dated 2014).

Experiments:
[1] = not cytotoxic up to this concentration
[2] = system: Mnk2 (Mnk2a or Mnk2b) or Mnk1; details: compound added to cell culture cells transfected with Mnk2 (Mnk2a or Mnk2b) or Mnk1

Nc1ncnc2n[nH]c(Nc3ccc(F)cc3)c12 [CGP57380]
concentration up to which not cytotoxic [1]: > 30 µM | reduction in phosphorylated eIF4E [2]: strong reduction in phosphorylated eIF4E
